# According to patent publication US20080026076A1 (priority 2003, published 2008):
# Where “and” joins values, the source holds several entries; their conditions need not be identical. Equal values may be shown once. Entries after “also recorded” stand apart in the source; their conditions may differ. Marks after values point to notes of the source that are not given here.
# Tests used:
# 8-isoprostane F2α = assay: Urinary 8-isoprostane F2α, enzyme-linked immunoassay; format: in vivo, human; settings: for Urinary Isoprostane, Endpoint: end of quercetin phase
# Procedure: During each patient visit whole blood (˜50 μL) was obtained from a digit puncture to determine blood lipids (LDL, VLDL, HDL, total cholesterol) and glucose using a clinical Cholestech LDX blood analyzer (37). Prior to each patient visit, first morning urine was collected, brought to the laboratory, and stored at −80° C. for later analysis of isoprostane concentrations. Urine 8-isoprostane F2α is a measure of lipid peroxidation and can be used to estimate oxidative stress in humans (45-47). Quantification of 8-isoprostane F2α (also known as 8-epi-PGF2α or 8-iso-PGF2α) in urine samples was performed using a competitive enzyme-linked immunoassay kit (Cayman Chemical, Ann Arbor, Mich.) according to the manufacturers instructions.
# [1] = system: rats with abdominal aortic constriction (AAC) or sham operated; assay: Post-sacrifice morphometric measurements (body, heart and organ weights, heart rate) to assess cardiac hypertrophy; format: in vivo, rat; settings: for Heart wt.: quercetin diet, mean ± SEM
# Excerpt: In this procedure the abdominal aorta is constricted to increase the afterload on the heart and produce pressure overload. […] Rats consumed this diet for 7 days.
# (§1) On the 8th day, 5 rats were surgically modeled for pressure overload by constricting the abdominal aorta to a diameter of 0.63 mm with a Weck hemoclip. The other 5 rats were sham operated (anesthetized and the aorta exposed, but not constricted). […] Another group of 10 rats were placed on a standard diet with no supplement and treated in an identical fashion with 5 surgically modeled for pressure overload and 5 sham operated. […] Two weeks after surgery post-sacrifice morphometric measurements are obtained by measuring total heart weight, left ventricle weight, and calculating heart:body weight and left ventricle:body weight ratios to assess cardiac mass and cardiac hypertrophy.
# Post-sacrifice morphometric measurements are obtained by measuring body weight, total heart weight, calculating heart:body weight ratios and heart rate to assess cardiac mass and cardiac hypertrophy.
# [2] = system: rats with abdominal aortic constriction (AAC) or sham operated; assay: Blood pressure in caudal and carotid arteries of conscious rats, abdominal aortic constriction pressure overload model; format: in vivo, rat; settings: quercetin 1.5 g/kg chow, mean ± SEM
# Excerpt: as §1, with “In this procedure the abdominal aorta is constricted to increase the afterload on the heart and produce pressure overload. […] Rats consumed this diet for 7 days. On” for “On”, “hypertrophy. […] An identical experimental procedure as described in Example I is used with n=10 rats per group (S, AAC, SQ, AAC-Q) for a total of 40 rats. […] Rats subjected to this protocol have very high carotid blood pressure. Rats are anesthetized, a catheter is placed in the caudal and carotid arteries, rats are allowed to regain consciousness for 60 minutes and blood pressures are measured.” for “hypertrophy.”
# [3] = system: NE precontracted aortic segments; assay: Vascular reactivity in segments of aorta, wire-type myograph; format: in vivo, rat
# Procedure: Animals are anesthetized, the heart and aorta excised, and vascular reactivity is assessed in segments of aorta using a wire-type myograph.
# [4] = 30 mg/kg quercetin (p.o.) in rats (ref. 61); cited from earlier work
# [5] = system: prehypertensive and stage 1 hypertensive human subjects; assay: Randomized, placebo-controlled, double-blind crossover trial: blood pressure; format: in vivo; settings: for Diastolic blood pressure, Endpoint / MAP, Endpoint / Systolic blood pressure, Endpoint: end of 4-week quercetin phase, 730 mg/day, mean ± SEM; for quercetin induced-lowering of systolic blood pressure: change from baseline
# Excerpt: Systemic markers of oxidant load also were examined as secondary outcomes to determine if reductions in blood pressure were associated with lower indices of oxidative stress. This study was approved by the University of Utah Human Use Review Committee, University of Utah Institutional Review Board, and written informed consent was obtained from each participant. Recruitment efforts in the greater Salt Lake City area targeted males and females with prehypertension (120-139 mmHg systolic/80-89 mmHg diastolic) and Stage 1 hypertension (140-159 mmHg systolic/90-99 mmHg diastolic) as defined by The 7th Report Of The Joint National Committee On Prevention, Detection, Evaluation, And Treatment Of High Blood Pressure (32). […] The secondary hypothesis was that quercetin-induced reductions in blood pressure would be associated with lower indices of systemic oxidant stress. […] A 14-day washout period separated the two phases. Subjects were randomly assigned to begin either the quercetin or the placebo phase first. […] Clinic visits were conducted on overnight-fasted subjects in the morning hours at the beginning and end of the placebo and quercetin supplementation phases. Subjects were instructed not to exercise prior to their appointments. […] Blood pressure was a primary outcome variable and was obtained at each clinic visit by a trained observer using an Omron random zero automatic blood pressure analyzer as previously described (35). Each participant sat quietly for 5-10 minutes, after which their arm was placed at heart level and blood pressure and pulse rate were determined at least three times in 3-5 minute intervals. If blood pressure varied among these determinations by more than 10 mmHg, three additional trials were performed. The accumulated measurements then were averaged to determine overall systolic and diastolic pressure and pulse rate for each subject.
# ERK1/2 = ERK1/2 signaling status in left ventricle, immunoblot; format: in vivo, rat; settings: AAC rats fed supplemental quercetin
# Procedure: (§2) Determination of ERK1/2 and Akt signaling status (FIGS. 4A & 4B). All extraction procedures were performed at 4° C. […] After homogenization, the samples were sonicated twice on ice and centrifuged at 11,000×g for 10 min. at 4° C. Supernatants were recovered and stored at −80° C. for subsequent immunoblotting. Protein concentration of whole heart cell lysate was determined using a Bio-Rad Protein assay (Bio-Rad, Hercules, Calif.) with bovine serum albumin (BSA) as a standard.
# Akt = Akt signaling status in left ventricle, immunoblot; format: in vivo, rat; settings: AAC rats fed supplemental quercetin
# Procedure: as §2
# [6] = sham-operated Q-fed animals (n=10)
smiles,measurement,setting,value
"O=c1c(O)c(-c2ccc(O)c(O)c2)oc2cc(O)cc(O)c12 [quercetin, 3,5,7,3′,4′-pentahydroxyflavone]","fasting urinary 8-isoprostane F2α concentration, quercetin supplementation vs. placebo",8-isoprostane F2α; both groups of hypertensive subjects,not altered
same,"Urinary Isoprostane, Endpoint","8-isoprostane F2α; prehypertensive (n=10), baseline 518 ± 55",520 ± 75 ng/g creatine
same,"Urinary Isoprostane, Endpoint","8-isoprostane F2α; stage 1 hypertensive (n=8), baseline 822 ± 249",549 ± 59 ng/g creatine
same,Heart wt.,[1]; AAC + Q (n = 9),1.18 ± 0.03^b g
same,cardiac hypertrophy,"[1]; AAC-Q rats compared with AAC and sham rats, two weeks after surgery",lower level of cardiac hypertrophy; also recorded: levels of hypertrophy in between S and AAC rats
same,Heart wt.,[1]; Sham + Q (n = 10),1.01 ± 0.03^a g
same,Caudal MAP (mean arterial pressure),[2]; AAC + Q: AAC rats,108.0 ± 7.1 mmHg
same,Diastolic Caudal blood pressure,[2]; AAC + Q: AAC rats,104.7 ± 5.5^b mmHg
same,Gradient MAP,[2]; AAC + Q: AAC rats,18.3 ± 4.4^b mmHg
same,Systolic Caudal blood pressure,[2]; AAC + Q: AAC rats,118.3 ± 6.4 mmHg
same,Systolic Carotid blood pressure,"[2]; AAC + Q: AAC rats, untreated AAC 201.4 ± 11.4",158.8±10.3 mmHg and 158.8 ± 10.3^b mmHg
same,Carotid MAP (mean arterial pressure),[2]; Sham + Q: sham operated rats,113.5 ± 3.8^a mmHg
same,Caudal MAP (mean arterial pressure),[2]; Sham + Q: sham operated rats,100.6 ± 3.0 mmHg
same,Diastolic Carotid blood pressure,[2]; Sham + Q: sham operated rats,106.2 ± 4.8^a mmHg
same,Diastolic Caudal blood pressure,[2]; Sham + Q: sham operated rats,93.6 ± 3.2^a mmHg
same,Diastolic Gradient (carotid vs caudal),[2]; Sham + Q: sham operated rats,7.0 ± 2.9^a mmHg
same,Gradient MAP,[2]; Sham + Q: sham operated rats,7.2 ± 1.9^ab mmHg
same,Systolic Carotid blood pressure,[2]; Sham + Q: sham operated rats,128.2 ± 1.9^a mmHg
same,Systolic Caudal blood pressure,[2]; Sham + Q: sham operated rats,114.7 ± 3.2 mmHg
same,Systolic Gradient (carotid vs caudal),[2]; Sham + Q: sham operated rats,7.3 ± 1.9^a mmHg
same,maximal ACh-evoked relaxation,"[3]; AAC-Q rats (n=9), untreated AAC 30±3",44±3%
same,SNP-evoked relaxation,"[3]; AAC-Q rats (n=9), untreated AAC 56±3",71±4%
same,SNP-evoked relaxation,[3]; [6],71±5%
same,maximal ACh-evoked relaxation,[3]; [6],38±4%
same,hypertensive response to i.v. administration of angiotensin II,[4],significantly blunted the hypertensive response
same,"Diastolic blood pressure, Endpoint","[5]; prehypertensive (n=22), baseline 85 ± 1",83 ± 2 mmHg
same,"MAP, Endpoint","[5]; prehypertensive (n=22), baseline 101 ± 1",98 ± 2 mmHg
same,"Systolic blood pressure, Endpoint","[5]; prehypertensive (n=22), baseline 133 ± 2",128 ± 3 mmHg
same,quercetin induced-lowering of systolic blood pressure,[5]; prehypertensive,−5.2 mmHg
same,"Diastolic blood pressure, Endpoint","[5]; stage 1 hypertensive (n=22), baseline 97 ± 1",92 ± 2 mmHg
same,"MAP, Endpoint","[5]; stage 1 hypertensive (n=22), baseline 113 ± 1",108 ± 2 mmHg
same,"Systolic blood pressure, Endpoint","[5]; stage 1 hypertensive (n=22), baseline 145 ± 2",138 ± 2 mmHg
same,quercetin induced-lowering of systolic blood pressure,[5]; stage 1 hypertensive,−7.2 mmHg
same,carryover antihypertensive effect: mean arterial pressure at baseline of quercetin phase vs placebo phase,[5]; subjects that received quercetin treatment first,No differences were found
same,activation of ERK1/2,ERK1/2,reduced
same,activation of Akt,Akt,prevented
